Tests used:
[1] = biological target: T1, serotonine transporter (SERT) receptor (Homo sapiens, UniProt P31645); experiment: Binding assay SERT (h), [3H]imipramine, CHO cells; details: read-out: SERT [%]
T1 construct: expressed in transfected cells; host or cells: CHO cells
Summary of the method: (§1)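 Radioligand displacement at 1×10^−6 M compound, with detection by scintillation counting. Nonspecific signal is measured using an excess of non-radioactive ligand.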

adrenergic α1 receptor = experiment: Binding assay α1 (non-selective), [3H]prazosin, rat cerebral cortex; details: percent inhibition of control specific binding; compounds tested at 1×10^−6 M
Summary of the method: as §1

dopaminergic D3 receptor = dopaminergic D3 receptor (Homo sapiens, UniProt P35462); experiment: Binding assay D3 (h), [3H]methyl-spiperone, CHO cells; design: expressed in transfected cells; host or cells: CHO cells; details: read-out: D3 [%]
Summary of the method: as §1

[2] = biological target: serotoninergic 5-HT6 receptor (Homo sapiens, UniProt P50406); experiment: Binding assay 5-HT6 (h), [3H]LSD, CHO cells; design: expressed in transfected cells; host or cells: CHO cells; details: read-out: 5-HT6
Summary of the method: as §1

[3] = biological target: serotoninergic 5-HT7 receptor (Homo sapiens, UniProt P34969); experiment: Binding assay 5-HT7 (h), [3H]LSD, CHO cells; design: expressed in transfected cells; host or cells: CHO cells; details: read-out: 5-HT7
Summary of the method: as §1

dopaminergic D2 receptor = dopaminergic D2 receptor (Homo sapiens, UniProt P14416); experiment: Binding assay D2S (h), [3H]methyl-spiperone, HEK-293 cells; design: expressed in transfected cells; host or cells: HEK-293 cells; details: read-out: D2 [%]
Summary of the method: as §1

[4] = biological target: T2, serotoninergic 5-HT1A receptor (Homo sapiens, UniProt P08908); experiment: Binding assay 5-HT1A (h), [3H]8-OH-DPAT, HEK-293 cells; design: expressed in transfected cells; host or cells: HEK-293 cells; details: read-out: 5-HT1A
T2 sequence (P08908 1-422): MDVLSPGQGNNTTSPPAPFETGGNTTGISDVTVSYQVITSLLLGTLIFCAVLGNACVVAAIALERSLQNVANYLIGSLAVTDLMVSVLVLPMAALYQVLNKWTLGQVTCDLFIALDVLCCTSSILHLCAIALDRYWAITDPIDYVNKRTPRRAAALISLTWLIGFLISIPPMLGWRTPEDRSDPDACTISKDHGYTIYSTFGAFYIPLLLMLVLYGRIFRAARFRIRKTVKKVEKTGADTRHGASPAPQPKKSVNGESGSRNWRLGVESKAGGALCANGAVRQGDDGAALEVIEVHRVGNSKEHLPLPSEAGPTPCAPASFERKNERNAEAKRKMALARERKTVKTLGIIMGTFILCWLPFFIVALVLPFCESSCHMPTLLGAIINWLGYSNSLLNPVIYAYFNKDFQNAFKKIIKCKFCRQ
Summary of the method: as §1

[5] = biological target: serotoninergic 5-HT2A receptor (Homo sapiens, UniProt P28223); experiment: Binding assay 5-HT2A (h), [3H]ketanserin, HEK-293 cells; design: expressed in transfected cells; host or cells: HEK-293 cells; details: read-out: 5-HT2A
Summary of the method: as §1

serotoninergic 5-HT6 receptor, sequence (P50406 whole entry): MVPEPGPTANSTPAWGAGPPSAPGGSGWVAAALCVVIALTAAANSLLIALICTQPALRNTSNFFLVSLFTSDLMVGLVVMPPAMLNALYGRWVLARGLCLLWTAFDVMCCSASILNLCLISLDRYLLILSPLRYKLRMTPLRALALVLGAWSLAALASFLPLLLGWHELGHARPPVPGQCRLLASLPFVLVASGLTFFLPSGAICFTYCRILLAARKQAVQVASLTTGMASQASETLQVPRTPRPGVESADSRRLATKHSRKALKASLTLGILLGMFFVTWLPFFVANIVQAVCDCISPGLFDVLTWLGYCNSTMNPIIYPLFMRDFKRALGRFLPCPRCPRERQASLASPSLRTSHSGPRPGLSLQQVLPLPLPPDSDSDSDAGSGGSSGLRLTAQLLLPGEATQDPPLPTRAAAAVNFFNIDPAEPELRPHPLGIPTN
serotoninergic 5-HT7 receptor, sequence (P34969 whole entry): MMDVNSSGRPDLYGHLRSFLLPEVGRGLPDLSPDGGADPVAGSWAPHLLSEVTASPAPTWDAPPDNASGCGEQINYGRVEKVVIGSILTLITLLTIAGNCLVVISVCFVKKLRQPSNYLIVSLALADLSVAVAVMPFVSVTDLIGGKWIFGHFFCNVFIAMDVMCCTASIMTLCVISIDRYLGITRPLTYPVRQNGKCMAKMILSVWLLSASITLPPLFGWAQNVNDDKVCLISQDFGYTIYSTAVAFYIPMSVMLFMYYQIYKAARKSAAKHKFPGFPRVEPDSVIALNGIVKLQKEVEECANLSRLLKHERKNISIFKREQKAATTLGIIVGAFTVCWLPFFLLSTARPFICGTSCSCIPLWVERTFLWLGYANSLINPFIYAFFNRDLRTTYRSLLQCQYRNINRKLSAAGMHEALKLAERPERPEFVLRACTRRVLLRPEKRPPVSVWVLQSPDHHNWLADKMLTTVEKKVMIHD
dopaminergic D3 receptor, sequence (P35462 whole entry): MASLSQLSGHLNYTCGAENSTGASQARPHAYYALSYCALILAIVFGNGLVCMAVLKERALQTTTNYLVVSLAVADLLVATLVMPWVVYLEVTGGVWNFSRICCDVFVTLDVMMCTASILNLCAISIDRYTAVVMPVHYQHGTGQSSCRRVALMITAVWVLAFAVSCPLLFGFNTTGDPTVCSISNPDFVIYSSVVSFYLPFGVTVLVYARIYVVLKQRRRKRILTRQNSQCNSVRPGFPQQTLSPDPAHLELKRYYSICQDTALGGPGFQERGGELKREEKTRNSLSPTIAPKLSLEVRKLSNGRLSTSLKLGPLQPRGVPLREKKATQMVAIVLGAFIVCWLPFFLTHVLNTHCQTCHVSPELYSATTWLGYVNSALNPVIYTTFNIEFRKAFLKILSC
dopaminergic D2 receptor, sequence (P14416 1-414 isoform P14416-2): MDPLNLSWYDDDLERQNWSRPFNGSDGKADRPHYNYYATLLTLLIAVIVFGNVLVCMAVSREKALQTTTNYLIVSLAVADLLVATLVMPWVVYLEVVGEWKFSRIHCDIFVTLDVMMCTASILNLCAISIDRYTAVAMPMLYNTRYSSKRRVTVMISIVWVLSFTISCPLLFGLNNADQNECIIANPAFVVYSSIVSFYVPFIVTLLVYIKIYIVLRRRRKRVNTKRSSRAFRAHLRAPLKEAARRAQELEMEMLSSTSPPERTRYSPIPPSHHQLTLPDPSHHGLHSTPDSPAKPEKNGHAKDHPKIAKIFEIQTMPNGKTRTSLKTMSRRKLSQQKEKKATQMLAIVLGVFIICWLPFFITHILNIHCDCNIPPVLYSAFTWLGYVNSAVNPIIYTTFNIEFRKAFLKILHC
T1 sequence (P31645 whole entry): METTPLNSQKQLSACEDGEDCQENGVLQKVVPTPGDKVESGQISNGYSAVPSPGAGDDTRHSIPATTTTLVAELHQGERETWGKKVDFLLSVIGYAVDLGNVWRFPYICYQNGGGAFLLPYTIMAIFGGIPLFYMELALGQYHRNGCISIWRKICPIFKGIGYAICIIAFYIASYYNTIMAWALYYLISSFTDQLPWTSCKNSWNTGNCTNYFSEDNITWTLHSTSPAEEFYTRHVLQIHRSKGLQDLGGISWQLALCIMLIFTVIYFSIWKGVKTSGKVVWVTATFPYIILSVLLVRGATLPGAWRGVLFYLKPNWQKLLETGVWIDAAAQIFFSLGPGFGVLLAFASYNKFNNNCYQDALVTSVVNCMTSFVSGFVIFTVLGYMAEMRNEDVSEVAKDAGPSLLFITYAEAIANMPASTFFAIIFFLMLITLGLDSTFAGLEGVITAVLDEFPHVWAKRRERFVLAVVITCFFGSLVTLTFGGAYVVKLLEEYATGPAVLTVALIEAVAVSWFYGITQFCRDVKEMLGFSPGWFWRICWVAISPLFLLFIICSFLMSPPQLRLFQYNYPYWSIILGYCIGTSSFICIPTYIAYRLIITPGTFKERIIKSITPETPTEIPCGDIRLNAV
serotoninergic 5-HT2A receptor, sequence (P28223 whole entry): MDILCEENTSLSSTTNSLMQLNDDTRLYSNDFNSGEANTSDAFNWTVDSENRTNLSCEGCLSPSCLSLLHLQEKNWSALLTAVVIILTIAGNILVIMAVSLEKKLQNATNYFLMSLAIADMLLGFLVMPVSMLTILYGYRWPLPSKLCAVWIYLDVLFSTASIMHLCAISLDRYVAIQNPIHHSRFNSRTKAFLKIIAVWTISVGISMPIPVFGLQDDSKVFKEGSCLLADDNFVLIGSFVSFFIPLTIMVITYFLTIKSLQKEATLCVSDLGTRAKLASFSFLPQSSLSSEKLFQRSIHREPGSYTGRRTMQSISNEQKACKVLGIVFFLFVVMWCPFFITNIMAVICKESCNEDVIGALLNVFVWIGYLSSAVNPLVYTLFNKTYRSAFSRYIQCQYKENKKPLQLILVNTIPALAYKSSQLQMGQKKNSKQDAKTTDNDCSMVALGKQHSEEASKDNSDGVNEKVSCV

Row | Compound | inhibition at 1 µM [1] [%] | α1 [%] (adrenergic α1 receptor) | inhibition at 1 µM (dopaminergic D3 receptor) [%] | inhibition at 1 µM [2] [%] | inhibition at 1 µM [3] [%] | inhibition at 1 µM (dopaminergic D2 receptor) [%] | inhibition at 1 µM [4] [%] | inhibition at 1 µM [5] [%]
1 | O=S(=O)(NCCCN1CCC(c2noc3cc(F)ccc23)CC1)c1ccsc1 [Compound 340, N-[3-[4-(6-Fluoro-1,2-benzoxazol-3-yl)piperidin-1-yl]propyl]thiophene-3-sulphonamide] | 9 | 110 | 101 | 72 | 90 | 101 | 45 | 104
2 | Cc1[nH]c2ccc(Cl)cc2c1C1=CCN(CCCNS(=O)(=O)c2cccc3ccccc23)CC1 [Compound 441, N-[3-[4-(5-Chloro-2-methyl-1H-indol-3-yl)-3,6-dihydro-2H-pyridin-1-yl]propyl]-naphthalene-1-sulphonamide] | 1 | 16 | 72 | 84 | 82 | 77 | 54 | 57
3 | O=S(=O)(NCCCCN1CCN(c2noc3ccccc23)CC1)c1cnc2ccccn12 [Compound 293, N-[4-[4-(1,2-Benzoxazol-3-yl)piperazin-1-yl]butyl]imidazo[1,2-a]pyridine-3-sulphonamide] | 3 | 98 | 65 | 44 | 93 | 85 | 57 | 89
4 | O=S(=O)(NCCCN1CCN(c2nsc3ccccc23)CC1)c1cccc(O)c1 [Compound 254, N-[3-[4-(1,2-Benzothiazol-3-yl)piperazin-1-yl]propyl]-3-hydroxybenzenesulphonamide] | 9 | 96 | 98 | 76 | 93 | 87 | 94 | 90
5 | O=S(=O)(NCCCCN1CCN(c2noc3ccccc23)CC1)c1cccc(C(F)(F)F)c1 [Compound 91, N-[4-[4-(1,2-Benzoxazol-3-yl)piperazin-1-yl]butyl]-3-(trifluoromethyl)benzenesulphonamide] | 2 | 99 | 70 | 83 | 99 | 92 | 40 | 95
6 | O=S(=O)(NCCCCN1CCC(c2noc3cc(F)ccc23)CC1)c1ccsc1 [Compound 307, N-[4-[4-(6-Fluoro-1,2-benzoxazol-3-yl)piperidin-1-yl]butyl]thiophene-3-sulphonamide] | -3 | 105 | 95 | 76 | 85 | 88 | 73 | 99
7 | O=S(=O)(NCCCN1CCN(c2nsc3ccccc23)CC1)c1cnc2ccccn12 [Compound 76, N-[3-[4-(1,2-Benzothiazol-3-yl)piperazin-1-yl]propyl]imidazo[1,2-a]pyridine-3-sulphonamide] | 15 | 95 | 71 | 70 | 86 | 94 | 90 | 81
8 | O=S(=O)(NCCCN1CCC(c2noc3cc(F)ccc23)CC1)c1ccc2c(c1)CCO2 [Compound 350, N-[3-[4-(6-Fluoro-1,2-benzoxazol-3-yl)piperidin-1-yl]propyl]-2,3-dihydrobenzofuran-5-sulphonamide] | -5 | 102 | 95 | 96 | 87 | 102 | 57 | 95
9 | O=S(=O)(NCCCCN1CCN(c2cccc3c2OCCO3)CC1)c1ccc(-c2ccccc2)cc1 [Compound 396, N-[4-[4-(2,3-Dihydro-1,4-benzodioxin-5-yl)piperazin-1-yl]butyl]-4-phenylbenzenesulphonamide] | 16 | 84 | 86 | 31 | 88 | 68 | 85 | 58
10 | O=S(=O)(NCCCN1CCN(c2nsc3ccccc23)CC1)c1cc2ccc(Cl)cc2s1 [Compound 264, N-[3-[4-(1,2-Benzothiazol-3-yl)piperazin-1-yl]propyl]-6-chlorobenzothiophene-2-sulphonamide] | -18 | 53 | 65 | 63 | 75 | 87 | 54 | 105
11 | O=S(=O)(NCCCCN1CCN(c2nsc3ccccc23)CC1)c1cccc(Br)c1 [Compound 230, N-[4-[4-(1,2-Benzothiazol-3-yl)piperazin-1-yl]butyl]-3-bromobenzenesulphonamide] | 13 | 98 | 87 | 85 | 101 | 105 | 85 | 87
12 | O=S(=O)(NCCCN1CCN(c2cccc3c2OCCO3)CC1)c1ccc(F)cc1 [Compound 408, N-[3-[4-(2,3-Dihydro-1,4-benzodioxin-5-yl)piperazin-1-yl]propyl]-4-fluorobenzenesulphonamide] | -18 | 70 | 70 | 35 | 83 | 40 | 101 | -50
13 | O=S(=O)(NCCCCN1CCN(c2nsc3ccccc23)CC1)c1ccc(F)cc1 [Compound 225, N-[4-[4-(1,2-Benzothiazol-3-yl)piperazin-1-yl]butyl]-4-fluorobenzenesulphonamide] | -4 | 94 | 76 | 74 | 92 | 77 | 87 | 84
14 | O=S(=O)(NCCCN1CCN(c2cccc3c2OCCO3)CC1)c1csc2ccccc12 [Compound 416, N-[3-[4-(2,3-Dihydro-1,4-benzodioxin-5-yl)piperazin-1-yl]propyl]benzothiophene-3-sulphonamide] | -4 | 81 | 56 | 55 | 99 | 59 | 101 | 58
15 | N#Cc1cccc(S(=O)(=O)NCCCCN2CCC(c3noc4cc(F)ccc34)CC2)c1 [Compound 306, 3-Cyano-N-[4-[4-(6-fluoro-1,2-benzoxazol-3-yl)piperidin-1-yl]butyl]benzenesulphonamide] | -10 | 99 | 99 | 81 | 89 | 106 | 44 | 97
16 | O=S(=O)(NCCCCN1CCN(c2nsc3ccccc23)CC1)c1ccc(Cl)cc1 [Compound 227, N-[4-[4-(1,2-Benzothiazol-3-yl)piperazin-1-yl]butyl]-4-chlorobenzenesulphonamide] | 2 | 92 | 90 | 76 | 94 | 104 | 89 | 90
17 | O=S(=O)(NCCCCN1CCN(c2noc3ccccc23)CC1)c1cccc(F)c1 [Compound 87, N-[4-[4-(1,2-Benzoxazol-3-yl)piperazin-1-yl]butyl]-3-fluorobenzenesulphonamide] | 2 | 98 | 77 | 67 | 90 | 87 | 41 | 89

Source: patent US8822517B2, “Arylosulfonamides for the treatment of CNS diseases” (Adamed SP. Z O.O., priority 2010, dated 2014)
